Source: patent US7256186B2, “Gamma secretase inhibitors” (Schering Corporation, priority 2002, dated 2007)
Where two headings read alike, the source gives them in different places.

Molecular target: T1, Gamma secretase (Homo sapiens, UniProt P49768)
T1 construct: endogenous in cells; host or cells: Salt-washed membranes of 293 T-REx cells, clone pTRE.15; Only the substrate SPC99-Lon is transfected (pcDNA4/TO, tetracycline-induced)
Test: Gamma secretase activity assay on membranes of 293 cells expressing SPC99-Lon (Aβ 40 / Aβ 42 measured by ECL immunoassay)
Assay type: biochemical
Conditions: membrane γ-secretase assay
Description: Upon insertion into the membrane, the 17 amino acid signal peptide is processed, leaving an additional leucine at the N-terminus of Aβ. SPC99-lon was cloned into the pcDNA4/TO vector (Invitrogen) and transfected into 293 cells stably transfected with pcDNA6/TR, which is provided in the T-REx system (Invitrogen). The transfected cells were selected in Dulbecco's modified Eagle's media (DMEM) supplemented with 10% fetal bovine serum, 100 units/mL penicillin, 100 µg/mL streptomycin, 250 µg/mL zeocin, and 5 µg/mL blasticidin (Invitrogen). Colonies were screened for Aδ production by inducing C99 expression with 0.1 g/mL tetracycline for 16–20 h and analyzing conditioned media with a sandwich immunoassay (see below). One of the clones, designated as pTRE.15, was used in these studies.
C99 expression in cells was induced with […] tetracycline for 20 h. The cells were pretreated with […] 12-myristate 13-acetate (PMA) and […] A (BFA) for 5–6 h at 37 C before harvesting. The cells were washed 3 times with cold phosphate-buffered saline (PBS) and harvested in buffer A containing 20 mM Hepes (pH 7.5), 250 mM sucrose, 50 mM KCl, 2 mM EDTA, 2 mM EGTA, and Complete protease inhibitor tablets (Roche Molecular Biochemicals). The cell pellets were flash-frozen in liquid nitrogen and stored at −70 C before use.
To make membranes, the cells were resuspended in buffer A and lysed in a nitrogen bomb at 600 psi. The cell lysate was centrifuged at 1500 g for 10 min to remove nuclei and large cell debris. The supernatant was centrifuged at 100000 g for 1 h. The membrane pellet was resuspended in buffer A plus 0.5 M NaCl, and the membranes were collected by centrifugation at 200000 g for 1 h. The salt-washed membrane pellet was washed again in buffer A and centrifuged at 100000 g for 1 h. The final membrane pellet was resuspended in a small volume of buffer A using a Teflon-glass homogenizer. The protein concentration was determined, and membrane aliquots were flash-frozen in liquid nitrogen and stored at −70 C. γ-Secretase Reaction and Aβ Analysis
To measure γ-secretase activity, membranes were incubated at 37 C for 1 h in 50 L of buffer containing 20 mM Hepes (pH 7.0) and 2 mM EDTA. At the end of the incubation, Aβ 40 and Aβ 42 were measured using an electrochemiluminescence (ECL)-based immunoassay. Aβ 40 was identified with antibody pairs TAG-G2–10 and biotin-W02, while Aβ 42 was identified with TAG-G2–11 and biotin-4G8. The ECL signal was measured using an ECL-M8 instrument (IGEN International, Inc.) according to the manufacturer's instructions. The data presented were the means of the duplicate or triplicate measurements in each experiment.

[1] = range stated for a group of examples, read-out: IC50 within the range stated, gamma secretase assay
[2] = 37 C, 1 h, read-out: IC50 (μM), γ-secretase inhibitory activity

Row | SMILES | IC50 [1] | IC50 [2]
1 | O=C(OC1([C@H]2CCC[C@@H](C3CC3)N2S(=O)(=O)c2ccc(Cl)cc2)CC1)N1CCC(N2CCCCC2)CC1 [Example 161-A] | 0.0002 to 0.015 µM | 0.0028 µM
2 | O=C(OC[C@H]1CCC[C@@H](c2cccc(F)c2)N1S(=O)(=O)c1ccc(Cl)cc1)N1CCC(N2CCC(F)(F)CC2)CC1 [Example 67-N] | 0.0002 to 0.015 µM | –
3 | O=C(OC[C@H]1CCC[C@@H](c2cc(F)cc(F)c2)N1S(=O)(=O)c1ccc(Cl)cc1)N1CCC(N2CCCCC2)CC1 [Example 67-AT] | – | 0.0038 µM
4 | O=C(OC[C@H]1CCC[C@@H](c2cc(F)ccc2F)N1S(=O)(=O)c1ccc(Cl)cc1)N1CCC(N2CCCCC2)CC1 [Example 67-BL] | 0.0002 to 0.015 µM | –
5 | O=C(OC1(C2CCCC(c3cccc(F)c3)N2S(=O)(=O)c2ccc(Cl)cc2)CC1)N1CCC2(CC1)NCNC2=O (centres unmarked) [Example 173-G] | 0.0002 to 0.015 µM | –
6 | O=C(OC1(C2CCCC(c3cccc(F)c3)N2S(=O)(=O)c2ccc(Cl)cc2)CC1)N1CCN(CCO)CC1 (centres unmarked) [Example 173-C] | 0.0002 to 0.015 µM | 0.0018 µM
7 | C=C1CCN(C2CCN(C(=O)OC[C@H]3CCC[C@@H](c4cccc(F)c4)N3S(=O)(=O)c3ccc(Cl)cc3)CC2)CC1 [Example 67-P] | 0.0002 to 0.015 µM | –
8 | CC1CC(N2CCCCC2)CCN1C(=O)OC[C@@H]1CCC[C@H](C2CC2)N1S(=O)(=O)c1ccc(Cl)cc1 (some centres unmarked) [Example 160-K] | 0.0002 to 0.015 µM | –
9 | O=C(OC1([C@H]2CCC[C@@H](c3cc(F)cc(F)c3)N2S(=O)(=O)c2ccc(Cl)cc2)CC1)N1CCN(C2CCCCC2)CC1 [Example 173-K] | 0.0002 to 0.015 µM | –
10 | O=C(OC1([C@H]2CCC[C@@H](c3ccc(F)cc3F)N2S(=O)(=O)c2ccc(Cl)cc2)CC1)N1CCC(N2CCCCC2)CC1 [Example 173-I] | 0.0002 to 0.015 µM | –
11 | O=C(OC1(C2CCCC(c3cccc(F)c3)N2S(=O)(=O)c2ccc(Cl)cc2)CC1)N1CCC(N2CCCCC2)CC1 (centres unmarked) [Example 173-A] | 0.0002 to 0.015 µM | 0.0007 µM
12 | O=C(OC[C@H]1CCC[C@@H](c2ccccc2F)N1S(=O)(=O)c1ccc(Cl)cc1)N1CCC(N2CCCCC2)CC1 [Example 67-E] | 0.0002 to 0.015 µM | –
13 | O=C(OC[C@H]1CCC[C@@H](c2cc(F)cc(F)c2)N1S(=O)(=O)c1ccc(Cl)cc1)N1CCC(N2CCCCC2)CC1 [Example 67-BG] | 0.0002 to 0.015 µM | 0.0023 µM
14 | O=C(OC1(C2CCCC(c3cccc(F)c3)N2S(=O)(=O)c2ccc(Cl)cc2)CC1)N1CCN(C2CCCCC2)CC1 (centres unmarked) [Example 173-B] | 0.0002 to 0.015 µM | –
15 | CC(C)N1CCN(C(=O)OC2([C@H]3CCC[C@@H](C4CC4)N3S(=O)(=O)c3ccc(Cl)cc3)CC2)CC1 [Example 161-E] | 0.0002 to 0.015 µM | –
16 | O=C(OC1([C@H]2CCC[C@@H](c3cc(F)cc(F)c3)N2S(=O)(=O)c2ccc(Cl)cc2)CC1)N1CCC2(CC1)C(=O)NCN2c1ccccc1 [Example 173-L] | 0.0002 to 0.015 µM | –
17 | NC(=O)C1(N2CCCCC2)CCN(C(=O)OC2([C@H]3CCC[C@@H](c4cc(F)cc(F)c4)N3S(=O)(=O)c3ccc(Cl)cc3)CC2)CC1 [Example 173-J] | 0.0002 to 0.015 µM | 0.0008 µM
18 | O=C(OC[C@H]1CCC[C@@H](c2cccc(F)c2)N1S(=O)(=O)c1ccc(Cl)cc1)N1CCC(N2CCCCC2)CC1 [Example 67-B] | 0.0002 to 0.015 µM | 0.0027 µM
19 | CC1(N2CCCCC2)CCN(C(=O)OC[C@H]2CCC[C@@H](c3cccc(F)c3)N2S(=O)(=O)c2ccc(Cl)cc2)CC1 [Example 67-BA] | 0.0002 to 0.015 µM | –

The next lines start with the values.

Row | IC50 [1] | IC50 [2] | SMILES
20 | 0.0002 to 0.015 µM | – | O=C(OC[C@@H]1CCC[C@H](C2CC2)N1S(=O)(=O)c1ccc(Cl)cc1)N1CCN(C2CCCCC2)CC1 [Example 160-B]
21 | 0.0002 to 0.015 µM | – | O=C(OC[C@H]1CCC[C@@H](c2ccc(F)c(F)c2)N1S(=O)(=O)c1ccc(Cl)cc1)N1CCC(N2CCCCC2)CC1 [Example 67-BD]
22 | 0.0002 to 0.015 µM | 0.0027 µM | NC(=O)C1(N2CCCCC2)CCN(C(=O)OC2(C3CCCC(c4cccc(F)c4)N3S(=O)(=O)c3ccc(Cl)cc3)CC2)CC1 (centres unmarked) [Example 173-E]
23 | 0.0002 to 0.015 µM | – | O=C(OC1([C@H]2CCC[C@@H](C3CC3)N2S(=O)(=O)c2ccc(Cl)cc2)CC1)N1CCN(CC2CC2)CC1 [Example 161-F]
24 | 0.0002 to 0.015 µM | – | O=C(OC[C@H]1CCC[C@@H](c2cccc(F)c2)N1S(=O)(=O)c1ccc(F)cc1)N1CCC(N2CCCCC2)CC1 [Example 67-U]
25 | 0.0002 to 0.015 µM | – | NC(=O)C1(N2CCCCC2)CCN(C(=O)OC[C@H]2CCC[C@@H](c3cc(F)cc(F)c3)N2S(=O)(=O)c2ccc(Cl)cc2)CC1 [Example 67-BH]
26 | 0.0002 to 0.015 µM | – | Cc1cc([C@@H]2CCC[C@H](COC(=O)N3CCC(N4CCCCC4)CC3)N2S(=O)(=O)c2ccc(Cl)cc2)ccc1F [Example 67-BE]
27 | 0.0002 to 0.015 µM | 0.0002 µM | O=C(OC1([C@H]2CCC[C@@H](c3cc(F)cc(F)c3)N2S(=O)(=O)c2ccc(Cl)cc2)CC1)N1CCC(N2CCCCC2)CC1 [Example 173]
